Key:
[1] = tested on: MCF7, MDA‐MB‐231, HEK293, HepG2, U2OS and K562 cells; experiment: 72 h cell viability assay (Cell Titer-Glo); format: cell-based, human; conditions: 0-50 μM
Text: We compared morphological fingerprints of multiple parameters to assess overall biological similarity (Biol. Sim.) (Figure 1B).
A-366 and UNC0638 were purchased from Tocris. ARIAD and V-11-07-11 were purchased from Wuxi Apptec. UNC0737 and UNC0965 were synthesised as previously described.[1] Hemicholinium-3 and pyruvate kinase/lactic dehydrogenase enzymes were purchased from Sigma Aldrich. Aqueous and organic solvents were MS-grade and acquired by Sigma Aldrich unless stated otherwise.
MDA-MB-231, MCF7 and HEK293 cells were cultured in DMEM (Gibco, #11965092) supplemented with 10% FBS. K562 were cultured in IMDM (Gibco, #12440053) supplemented with 10% FBS. HepG2 were cultured in MEM (Gibco, #11095080) supplemented with 10 % FBS. […]
cultured in McCoy’s 5A (Sigma, M8403) supplemented with 10 % FBS and 1x GlutaMAX (Gibco, #35050061). Cells were maintained at 37 °C in a humidified 5% CO2 atmosphere. Peripheral blood mononuclear cells (PBMC) were isolated from healthy blood donors by density centrifugation.
MDA-MB-231, MCF7 or HEK293 cells (7.5 × 10^4 cells/mL) were each plated into x1 white 384-well polystyrene plate (Greiner Bio-One Ltd). A-366, […] and UNC0737 were directly added to each well of the cell line plates, at final concentrations 0-50 μM and incubated for 72 h at 37 °C/ 5% CO2.
Cell Titer-Glo® reagent was added to each well and total luminescence readings were performed within 15 min using the PHERAstar FSX (BMG Labtech). The cell viability results were normalised to the DMSO control and plotted using the sigmoidal dose-response (variable slope) equation in […]
Chemical Proteomics Drug Pulldown
For lysate generation MCF7 cells were grown until approximately 80% confluency before being pelleted and washed with PBS. […]
MDA-MB-231, […], HepG2, U2OS and K562 cells following treatment with A-366, UNC0638 and UNC0737 after 72 h measured by Cell Titer Glo assay (n=3). […]

[2] = tested on: primary human cell‐based tissue and disease models; experiment: BioMAP Diversity PLUS panel; conditions: 12 systems, Pearson's correlation >0.7
Text: Having confirmed that UNC0638 and UNC0737 are potent bona fide CHKA inhibitors, we next turned our attention to further investigate the role of CHKA in cellular signalling. While CHKA has been studied extensively in the context of malignant disease, there has been a growing acknowledgment of its relevance in immune metabolism.[9, 10] […] We profiled UNC0638 and UNC0737 alongside the orthogonal CHKA inhibitors V‐11‐0711 and ARIAD against the BioMAP Diversity PLUS panel (Figures S7).[24] This set comprises 148 distinct biomarkers across 12 systems, including panels for systemic immune responses. […] The decrease in IgG secretion was accompanied by a reduction in stimulation‐induced B cell maturation into CD27^+IgD^− memory CD19^+ B cells (Figure 4D). […]
consecutive concentrations change in the same direction relative to vehicle controls, are outside of the significance envelope, and have at least one concentration with an effect size > 20% (|log10ratio| > 0.1). Biomarker key activities are described as modulated if these activities increase in some systems, but decrease in others. Cytotoxicity is indicated on the profile plot by a thin black arrow above the x- […]
Cytotoxicity and antiproliferative arrows only require one concentration to meet the indicated threshold for profile annotation. […]

CHKA [3] = molecular target: T1, CHKA (Homo sapiens, UniProt P35790); experiment: Differential scanning fluorimetry (DSF); format: binding; parameters: host or cells: E. coli BL21(DE3); conditions: 10 µM compound, 2 µM CHKA
T1 sequence (P35790 75-457 limits assumed): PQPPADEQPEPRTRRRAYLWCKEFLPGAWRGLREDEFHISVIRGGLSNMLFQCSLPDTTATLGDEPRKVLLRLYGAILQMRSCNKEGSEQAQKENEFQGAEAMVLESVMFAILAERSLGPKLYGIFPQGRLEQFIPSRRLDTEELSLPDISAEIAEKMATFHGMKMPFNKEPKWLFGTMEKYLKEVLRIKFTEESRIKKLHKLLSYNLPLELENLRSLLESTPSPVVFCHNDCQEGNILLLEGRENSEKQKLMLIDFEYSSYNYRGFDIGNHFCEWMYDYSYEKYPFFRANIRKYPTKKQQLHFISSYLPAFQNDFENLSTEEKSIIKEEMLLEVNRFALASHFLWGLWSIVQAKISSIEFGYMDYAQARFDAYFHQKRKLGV
Procedure: mM NaCl, 5% glycerol, 500 mM imidazole, 0.5% TCEP, pH 7.5), the eluent was concentrated, and further purified by size exclusion chromatography using a HiLoad 16/600 Superdex S200 column (Cytiva) pre-equilibrated in Buffer C (20 mM HEPES, 150 mM NaCl, pH 7.5). The resulting protein purity was assessed by SDS-PAGE, and protein identity was confirmed by tryptic digest analysis. Protein concentration was determined to be 35.5 mg/mL, and was calculated using a theoretical molar extinction coefficient of 58830 M-1cm-1 as determined by ProtParam.[5] […]
Differential Scanning Fluorimetry (DSF)
DSF buffer (20 mM HEPES, 150 mM NaCl, 0.5 mM TCEP, pH 7.5) containing 5x SYPRO Orange (Thermo Fisher Scientific) and CHKA (2 µM) was incubated with 10 µM compound at 2% DMSO final concentration in a 96-well semi-skirted real time PCR plate. Fluorescence was measured in each well over a 40-80 °C gradient using a Stratagen MX3005p qPCR instrument (Agilent Technologies). […]

CHKA [4] = molecular target: T1, CHKA; experiment: Isothermal calorimetry (ITC); format: binding; parameters: host or cells: E. coli BL21(DE3)
Procedure: mM NaCl, 5% glycerol, 500 mM imidazole, 0.5% TCEP, pH 7.5), the eluent was concentrated, and further purified by size exclusion chromatography using a HiLoad 16/600 Superdex S200 column (Cytiva) pre-equilibrated in Buffer C (20 mM HEPES, 150 mM NaCl, pH 7.5). The resulting protein purity was assessed by SDS-PAGE, and protein identity was confirmed by tryptic digest analysis. Protein concentration was determined to be 35.5 mg/mL, and was calculated using a theoretical molar extinction coefficient of 58830 M-1cm-1 as determined by ProtParam.[5]
Isothermal Calorimetry (ITC)
ITC experiments were performed in a buffer containing 20 mM HEPES pH 7.5 and 200 mM NaCl, using an VP-ITC microcalorimeter (MicroCal) at 15 °C. The protein concentration was 200 µM and compounds were tested at 20 µM. The titrations were conducted using an initial injection of 4 μL followed by further 29 injections of 8 μL each. Thermodynamic parameters were calculated using ΔG = ΔH − TΔS = −RT ln KB, where ΔG, ΔH, and ΔS are the changes in free energy, enthalpy, and entropy of binding, respectively. Single binding models were employed to fit the data. […]

SMILES | effect on cell viability [1] | clustering of overall BioMAP responses across all biomarkers [2] | thermal stabilisation of CHKA (DSF) (CHKA [3]) | Kd (CHKA [4]) [nM]
COc1cc2c(cc1OCCCN1CCCC1)N=C(N)C21CCC1 [A‐366] | less efficient in inducing cancer cell death | did not exhibit any overlap | not | –
COc1cc2nc(N3CCCN(C)CC3)nc(NC3CCN(Cc4ccccc4)CC3)c2cc1OC [BIX‐01294] | – | – | exhibited CHKA stabilisation albeit to lesser degree than UNC0737 | –
C[N+]1(C)CCOC(O)(c2ccc(-c3ccc(C4(O)C[N+](C)(C)CCO4)cc3)cc2)C1 (stereo not drawn) [HC3, hemicholinium‐3] | – | – | – | 40.6
COc1cc2c(NC3CCN(C(C)C)CC3)nc(N3CCC(F)(F)CC3)nc2cc1OCCCN1CCCC1 [UNC0642] | – | – | exhibited CHKA stabilisation albeit to lesser degree than UNC0737 | –

— PMC11811597, “Phenomics‐Based Discovery of Novel Orthosteric Choline Kinase Inhibitors” (Angewandte Chemie (International Ed. in English), 2025)
